According to US10765114B2, “4-amino-6-(pyridyl and 2-substitutedphenyl)-picolinates and 6-amino-2-(pyridyl and 2-substitutedphenyl)-pyrimidine-4-carboxylates and their use as herbicides” (Dow AgroSciences LLC, priority 2013, dated 2020):

Each molecule was assayed on ALOMY (blackgrass) (assay: Post-Emergent Test III (Wheat and Barley)). Details: Alopecurus myosuroides, post-emergence, 504 h; 35 g ai/ha, postemergence; read-out: Visual Growth Reduction (%) 21 Days After Application, ALOMY.
Type: in vivo, Alopecurus myosuroides
Protocol: (§1) Seeds of the desired test plant species were planted in Sun Gro MetroMix® 306 planting mixture, which typically has a pH of 6.0 to 6.8 and an organic matter content of about 30 percent, in plastic pots with a surface area of 103.2 square centimeters (cm^2). When required to ensure good germination and healthy plants, a fungicide treatment and/or other chemical or physical treatment was applied. The plants were grown for 7-36 days in a greenhouse with an approximate 14 h photoperiod which was maintained at about 18° C. during the day and 17° C. during the night. Nutrients and water were added on a regular basis and supplemental lighting was provided with overhead metal halide 1000-Watt lamps as necessary. The plants were employed for testing when they reached the second or third true leaf stage.
(§2) A weighed amount, determined by the highest rate to be tested, of each test compound was placed in a 25 mL glass vial and was dissolved in 4 mL of a 97:3 v/v mixture of acetone and DMSO to obtain concentrated stock solutions. […] The concentrated stock solutions obtained were diluted with 20 mL of an aqueous mixture containing acetone, water, isopropyl alcohol, DMSO, Agri-Dex crop oil concentrate, and X-77 surfactant in a 48:39:10:1.5:1.5:0.02 v/v ratio to obtain spray solutions containing the highest application rates. Additional application rates were obtained by serial dilution of 12 mL of the high rate solution into a solution containing 2 mL of 97:3 v/v mixture of acetone and DMSO and 10 mL of an aqueous mixture containing acetone, water, isopropyl alcohol, DMSO, Agri-Dex crop oil concentrate, and X-77 surfactant in a 48:39:10:1.5:1.5:0.02 v/v ratio to obtain ½×, ¼×, ⅛× and 1/16× rates of the high rate. Compound requirements are based upon a 12 mL application volume at a rate of 187 liters per hectare (L/ha). Formulated compounds were applied to the plant material with an overhead Mandel track sprayer equipped with 8002E nozzles calibrated to deliver 187 L/ha over an application area of 0.503 square meters at a spray height of 18 inches (43 cm) above the average plant canopy height. Control plants were sprayed in the same manner with the solvent blank.
(§3) The treated plants and control plants were placed in a greenhouse as described above and watered by subirrigation to prevent wash-off of the test compounds. After 21 dAYS, the condition of the test plants as compared with that of the untreated plants was determined visually and scored on a scale of 0 to 100 percent where 0 corresponds to no injury and 100 corresponds to complete kill and presented as indicated in Table A.
(§4) By applying the well-accepted probit analysis as described by J. Berkson in Journal of the American Statistical Society, 48, 565 (1953) and by D. Finney in “Probit Analysis” Cambridge University Press (1952), herbicidal injury of a specific compound at various rates can be used to calculate GR10, GR20, GR50, GR80 and GR90 values, which are defined as growth reduction factors that correspond to the effective dose of herbicide required to provide plant growth reduction (GR) of 10 percent, 20 percent, 50 percent, 80 percent and 90 percent, respectively. Probit analysis was applied to data collected from multiple dose rates of individual compounds utilizing the procedures explained in the following examples. The analysis of those dose rates is captured in the following tables.

Structure (SMILES) | pest or weed control at 35 g/ha
COC(=O)c1nc(-c2ccc(Cl)c(F)c2OC)c(F)c(N)c1Cl [Compound 39, methyl 4-amino-3-chloro-6-(4-chloro-3-fluoro-2-methoxyphenyl)-5-fluoropicolinate] | 0 to 29%

Same assay, conditions: Alopecurus myosuroides, post-emergence, 504 h; 70 g ai/ha, postemergence; read-out: Visual Growth Reduction (%) 21 Days After Application, ALOMY

Structure (SMILES) | pest or weed control at 70 g/ha
COC(=O)c1nc(-c2ccc(Cl)c(F)c2OC)c(F)c(N)c1Cl [Compound 39, methyl 4-amino-3-chloro-6-(4-chloro-3-fluoro-2-methoxyphenyl)-5-fluoropicolinate] | 30 to 44%

Same assay, conditions: Alopecurus myosuroides, post-emergence, 504 h; 140 g ai/ha, postemergence; read-out: Visual Growth Reduction (%) 21 Days After Application, ALOMY

Structure (SMILES) | pest or weed control at 140 g/ha
COC(=O)c1nc(-c2ccc(Cl)c(F)c2OC)c(F)c(N)c1Cl [Compound 39, methyl 4-amino-3-chloro-6-(4-chloro-3-fluoro-2-methoxyphenyl)-5-fluoropicolinate] | 30 to 44%

Same assay, conditions: effective dose for growth reduction of 50 percent, probit analysis

Structure (SMILES) | GR50, ALOMY
COC(=O)c1nc(-c2ccc(Cl)c(F)c2OC)c(F)c(N)c1Cl [Compound 39, methyl 4-amino-3-chloro-6-(4-chloro-3-fluoro-2-methoxyphenyl)-5-fluoropicolinate] | >140 g ai/ha

Same assay, conditions: effective dose for growth reduction of 80 percent, probit analysis

Structure (SMILES) | GR80, ALOMY
COC(=O)c1nc(-c2ccc(Cl)c(F)c2OC)c(F)c(N)c1Cl [Compound 39, methyl 4-amino-3-chloro-6-(4-chloro-3-fluoro-2-methoxyphenyl)-5-fluoropicolinate] | >140 g ai/ha

The molecules below were run on TRZSS (assay: Post-Emergent Test III (Wheat and Barley)). Details: Triticum aestivum, post-emergence, 504 h; 35 g ai/ha, postemergence; read-out: Visual Growth Reduction (%) 21 Days After Application, TRZSS.
Type: in vivo
Protocol: as §1, §2, §3, §4

Structure (SMILES) | pest or weed control at 35 g/ha
COC(=O)c1nc(-c2ccc(Cl)c(F)c2OC)c(F)c(N)c1Cl [Compound 39, methyl 4-amino-3-chloro-6-(4-chloro-3-fluoro-2-methoxyphenyl)-5-fluoropicolinate] | 85 to 94%

Same assay, conditions: Triticum aestivum, post-emergence, 504 h; 70 g ai/ha, postemergence; read-out: Visual Growth Reduction (%) 21 Days After Application, TRZSS

Structure (SMILES) | pest or weed control at 70 g/ha
COC(=O)c1nc(-c2ccc(Cl)c(F)c2OC)c(F)c(N)c1Cl [Compound 39, methyl 4-amino-3-chloro-6-(4-chloro-3-fluoro-2-methoxyphenyl)-5-fluoropicolinate] | 95 to 100%

Same assay, conditions: Triticum aestivum, post-emergence, 504 h; 140 g ai/ha, postemergence; read-out: Visual Growth Reduction (%) 21 Days After Application, TRZSS

Structure (SMILES) | pest or weed control at 140 g/ha
COC(=O)c1nc(-c2ccc(Cl)c(F)c2OC)c(F)c(N)c1Cl [Compound 39, methyl 4-amino-3-chloro-6-(4-chloro-3-fluoro-2-methoxyphenyl)-5-fluoropicolinate] | 95 to 100%

Same assay, conditions: effective dose for growth reduction of 20 percent, probit analysis

Structure (SMILES) | GR20, TRZSS
COC(=O)c1nc(-c2ccc(Cl)c(F)c2OC)c(F)c(N)c1Cl [Compound 39, methyl 4-amino-3-chloro-6-(4-chloro-3-fluoro-2-methoxyphenyl)-5-fluoropicolinate] | 11 g ai/ha

These molecules were tested on HORSS (assay: Post-Emergent Test III (Wheat and Barley)). Details: Hordeum vulgare, post-emergence, 504 h; 35 g ai/ha, postemergence; read-out: Visual Growth Reduction (%) 21 Days After Application, HORSS.
Type: in vivo
Protocol: as §1, §2, §3, §4

Structure (SMILES) | pest or weed control at 35 g/ha
COC(=O)c1nc(-c2ccc(Cl)c(F)c2OC)c(F)c(N)c1Cl [Compound 39, methyl 4-amino-3-chloro-6-(4-chloro-3-fluoro-2-methoxyphenyl)-5-fluoropicolinate] | 30 to 44%

Same assay, conditions: Hordeum vulgare, post-emergence, 504 h; 70 g ai/ha, postemergence; read-out: Visual Growth Reduction (%) 21 Days After Application, HORSS

Structure (SMILES) | pest or weed control at 70 g/ha
COC(=O)c1nc(-c2ccc(Cl)c(F)c2OC)c(F)c(N)c1Cl [Compound 39, methyl 4-amino-3-chloro-6-(4-chloro-3-fluoro-2-methoxyphenyl)-5-fluoropicolinate] | 60 to 74%

Same assay, conditions: Hordeum vulgare, post-emergence, 504 h; 140 g ai/ha, postemergence; read-out: Visual Growth Reduction (%) 21 Days After Application, HORSS

Structure (SMILES) | pest or weed control at 140 g/ha
COC(=O)c1nc(-c2ccc(Cl)c(F)c2OC)c(F)c(N)c1Cl [Compound 39, methyl 4-amino-3-chloro-6-(4-chloro-3-fluoro-2-methoxyphenyl)-5-fluoropicolinate] | 75 to 84%

Same assay, conditions: effective dose for growth reduction of 20 percent, probit analysis

Structure (SMILES) | GR20, HORSS
COC(=O)c1nc(-c2ccc(Cl)c(F)c2OC)c(F)c(N)c1Cl [Compound 39, methyl 4-amino-3-chloro-6-(4-chloro-3-fluoro-2-methoxyphenyl)-5-fluoropicolinate] | 23 g ai/ha

The molecules below were run on SETVI (green foxtail) (assay: Post-Emergent Test III (Wheat and Barley)). Details: Setaria viridis, post-emergence, 504 h; 35 g ai/ha, postemergence; read-out: Visual Growth Reduction (%) 21 Days After Application, SETVI.
Type: in vivo, Setaria viridis
Protocol: as §1, §2, §3, §4

Structure (SMILES) | pest or weed control at 35 g/ha
COC(=O)c1nc(-c2ccc(Cl)c(F)c2OC)c(F)c(N)c1Cl [Compound 39, methyl 4-amino-3-chloro-6-(4-chloro-3-fluoro-2-methoxyphenyl)-5-fluoropicolinate] | 0 to 29%

Same assay, conditions: Setaria viridis, post-emergence, 504 h; 70 g ai/ha, postemergence; read-out: Visual Growth Reduction (%) 21 Days After Application, SETVI

Structure (SMILES) | pest or weed control at 70 g/ha
COC(=O)c1nc(-c2ccc(Cl)c(F)c2OC)c(F)c(N)c1Cl [Compound 39, methyl 4-amino-3-chloro-6-(4-chloro-3-fluoro-2-methoxyphenyl)-5-fluoropicolinate] | 0 to 29%

Same assay, conditions: Setaria viridis, post-emergence, 504 h; 140 g ai/ha, postemergence; read-out: Visual Growth Reduction (%) 21 Days After Application, SETVI

Structure (SMILES) | pest or weed control at 140 g/ha
COC(=O)c1nc(-c2ccc(Cl)c(F)c2OC)c(F)c(N)c1Cl [Compound 39, methyl 4-amino-3-chloro-6-(4-chloro-3-fluoro-2-methoxyphenyl)-5-fluoropicolinate] | 45 to 59%

Same assay, conditions: effective dose for growth reduction of 50 percent, probit analysis

Structure (SMILES) | GR50, SETVI
COC(=O)c1nc(-c2ccc(Cl)c(F)c2OC)c(F)c(N)c1Cl [Compound 39, methyl 4-amino-3-chloro-6-(4-chloro-3-fluoro-2-methoxyphenyl)-5-fluoropicolinate] | >140 g ai/ha

Same assay, conditions: effective dose for growth reduction of 80 percent, probit analysis

Structure (SMILES) | GR80, SETVI
COC(=O)c1nc(-c2ccc(Cl)c(F)c2OC)c(F)c(N)c1Cl [Compound 39, methyl 4-amino-3-chloro-6-(4-chloro-3-fluoro-2-methoxyphenyl)-5-fluoropicolinate] | >140 g ai/ha

The molecules below were run on KCHSC (kochia) (assay: Post-Emergent Test III (Wheat and Barley)). Details: Bassia scoparia, post-emergence, 504 h; 35 g ai/ha, postemergence; read-out: Visual Growth Reduction (%) 21 Days After Application, KCHSC.
Type: in vivo, Kochia scoparia
Protocol: as §1, §2, §3, §4

Structure (SMILES) | pest or weed control at 35 g/ha
COC(=O)c1nc(-c2ccc(Cl)c(F)c2OC)c(F)c(N)c1Cl [Compound 39, methyl 4-amino-3-chloro-6-(4-chloro-3-fluoro-2-methoxyphenyl)-5-fluoropicolinate] | 85 to 94%

Same assay, conditions: Bassia scoparia, post-emergence, 504 h; 70 g ai/ha, postemergence; read-out: Visual Growth Reduction (%) 21 Days After Application, KCHSC

Structure (SMILES) | pest or weed control at 70 g/ha
COC(=O)c1nc(-c2ccc(Cl)c(F)c2OC)c(F)c(N)c1Cl [Compound 39, methyl 4-amino-3-chloro-6-(4-chloro-3-fluoro-2-methoxyphenyl)-5-fluoropicolinate] | 95 to 100%

Same assay, conditions: Bassia scoparia, post-emergence, 504 h; 140 g ai/ha, postemergence; read-out: Visual Growth Reduction (%) 21 Days After Application, KCHSC

Structure (SMILES) | pest or weed control at 140 g/ha
COC(=O)c1nc(-c2ccc(Cl)c(F)c2OC)c(F)c(N)c1Cl [Compound 39, methyl 4-amino-3-chloro-6-(4-chloro-3-fluoro-2-methoxyphenyl)-5-fluoropicolinate] | 95 to 100%

Same assay, conditions: effective dose for growth reduction of 50 percent, probit analysis

Structure (SMILES) | GR50, KCHSC
COC(=O)c1nc(-c2ccc(Cl)c(F)c2OC)c(F)c(N)c1Cl [Compound 39, methyl 4-amino-3-chloro-6-(4-chloro-3-fluoro-2-methoxyphenyl)-5-fluoropicolinate] | 6 g ai/ha

Same assay, conditions: effective dose for growth reduction of 80 percent, probit analysis

Structure (SMILES) | GR80, KCHSC
COC(=O)c1nc(-c2ccc(Cl)c(F)c2OC)c(F)c(N)c1Cl [Compound 39, methyl 4-amino-3-chloro-6-(4-chloro-3-fluoro-2-methoxyphenyl)-5-fluoropicolinate] | 21 g ai/ha

What follows are molecules tested on APESV (windgrass) (assay: Post-Emergent Test III (Wheat and Barley)). Details: Apera spica-venti, post-emergence, 504 h; 35 g ai/ha, postemergence; read-out: Visual Growth Reduction (%) 21 Days After Application, APESV.
Type: in vivo, Apera spica-venti
Protocol: as §1, §2, §3, §4

Structure (SMILES) | pest or weed control at 35 g/ha
COC(=O)c1nc(-c2ccc(Cl)c(F)c2OC)c(F)c(N)c1Cl [Compound 39, methyl 4-amino-3-chloro-6-(4-chloro-3-fluoro-2-methoxyphenyl)-5-fluoropicolinate] | 30 to 44%

Same assay, conditions: Apera spica-venti, post-emergence, 504 h; 70 g ai/ha, postemergence; read-out: Visual Growth Reduction (%) 21 Days After Application, APESV

Structure (SMILES) | pest or weed control at 70 g/ha
COC(=O)c1nc(-c2ccc(Cl)c(F)c2OC)c(F)c(N)c1Cl [Compound 39, methyl 4-amino-3-chloro-6-(4-chloro-3-fluoro-2-methoxyphenyl)-5-fluoropicolinate] | 60 to 74%

Same assay, conditions: Apera spica-venti, post-emergence, 504 h; 140 g ai/ha, postemergence; read-out: Visual Growth Reduction (%) 21 Days After Application, APESV

Structure (SMILES) | pest or weed control at 140 g/ha
COC(=O)c1nc(-c2ccc(Cl)c(F)c2OC)c(F)c(N)c1Cl [Compound 39, methyl 4-amino-3-chloro-6-(4-chloro-3-fluoro-2-methoxyphenyl)-5-fluoropicolinate] | 60 to 74%

Same assay, conditions: effective dose for growth reduction of 50 percent, probit analysis

Structure (SMILES) | GR50, APESV
COC(=O)c1nc(-c2ccc(Cl)c(F)c2OC)c(F)c(N)c1Cl [Compound 39, methyl 4-amino-3-chloro-6-(4-chloro-3-fluoro-2-methoxyphenyl)-5-fluoropicolinate] | 75 g ai/ha

Same assay, conditions: effective dose for growth reduction of 80 percent, probit analysis

Structure (SMILES) | GR80, APESV
COC(=O)c1nc(-c2ccc(Cl)c(F)c2OC)c(F)c(N)c1Cl [Compound 39, methyl 4-amino-3-chloro-6-(4-chloro-3-fluoro-2-methoxyphenyl)-5-fluoropicolinate] | >140 g ai/ha
